# Results taken from ChEMBL document CHEMBL1201862, “PubChem BioAssay data set” (2004).
#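 Assay format: 96-well plates, 48-hour exposure. GI50 = concentration required for 50% inhibition of growth.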 The source made the active and inactive calls. Cut-off read from the data, not from the text of the source: active = GI50 up to about 1.1 µM and inactive = higher.
# How the values were obtained:
# Test in all cases: NCI-60 cell line screen, 48 h
# [1] = test system: 786-0
# [2] = test system: A498
# [3] = test system: A549
# [4] = test system: ACHN
# [5] = test system: BT-549
# [6] = test system: CAKI-1
# [7] = test system: CCRF-CEM
# [8] = test system: COLO 205
# [9] = test system: DU-145
# [10] = test system: EKVX
# [11] = test system: HCC 2998
# [12] = test system: HCT-116
# [13] = test system: HCT-15
# [14] = test system: HOP-62
# [15] = test system: HOP-92
# [16] = test system: HT-29
# [17] = test system: Hs-578T
# [18] = test system: K562
# [19] = test system: KM12
# [20] = test system: LOX IMVI
# [21] = test system: M14
# [22] = test system: MCF7
# [23] = test system: MDA-MB-231
# [24] = test system: MDA-MB-435
# [25] = test system: MDA-N
# [26] = test system: MOLT-4
# [27] = test system: Malme-3M
# [28] = test system: NCI-H226
# [29] = test system: NCI-H23
# [30] = test system: NCI-H460
# [31] = test system: NCI-H522
# [32] = test system: NCI/ADR-RES
# [33] = test system: OVCAR-3
# [34] = test system: OVCAR-4
# [35] = test system: OVCAR-5
# [36] = test system: OVCAR-8
# [37] = test system: PC-3
# [38] = test system: RPMI-8226
# [39] = test system: RXF 393
# [40] = test system: SF-268
# [41] = test system: SF-295
# [42] = test system: SF-539
# [43] = test system: SK-MEL-28
# [44] = test system: SK-MEL-2
# [45] = test system: SK-MEL-5
# [46] = test system: SK-OV-3
# [47] = test system: SN12C
# [48] = test system: SNB-19
# [49] = test system: SNB-75
# [50] = test system: SW-620
# [51] = test system: T47D
# [52] = test system: TK-10
# [53] = test system: U-251
# [54] = test system: UACC-257
# [55] = test system: UACC-62
# [56] = test system: UO-31
# [57] = test system: HL-60
# [58] = test system: IGROV-1
# [59] = test system: SR
structure (smiles),measurement,setting,value
Clc1ccc(Nc2nn3c(CCCCCCCCc4nnc5sc(Nc6ccc(Cl)cc6)nn45)nnc3s2)cc1,GI50,[1],51.6 µM (inactive)
same,GI50,[2],> 100 µM (inactive)
same,GI50,[3],> 100 µM (inactive)
same,GI50,[4],> 100 µM (inactive)
same,GI50,[5],> 100 µM (inactive)
same,GI50,[6],> 100 µM (inactive)
same,GI50,[7],17.6 µM (inactive)
same,GI50,[8],> 100 µM (inactive)
same,GI50,[9],> 100 µM (inactive)
same,GI50,[10],> 100 µM (inactive)
same,GI50,[11],> 100 µM (inactive)
same,GI50,[12],> 100 µM (inactive)
same,GI50,[13],> 100 µM
same,GI50,[14],38.3 µM (inactive)
same,GI50,[15],> 100 µM (inactive)
same,GI50,[16],49.3 µM (inactive)
same,GI50,[17],> 100 µM (inactive)
same,GI50,[18],50.5 µM (inactive)
same,GI50,[19],> 100 µM (inactive)
same,GI50,[20],> 100 µM (inactive)
same,GI50,[21],> 100 µM (inactive)
same,GI50,[22],> 100 µM (inactive)
same,GI50,[23],29.4 µM (inactive)
same,GI50,[24],> 100 µM (inactive)
same,GI50,[25],> 100 µM (inactive)
same,GI50,[26],90.6 µM (inactive)
same,GI50,[27],> 100 µM (inactive)
same,GI50,[28],> 100 µM (inactive)
same,GI50,[29],> 100 µM (inactive)
same,GI50,[30],> 100 µM (inactive)
same,GI50,[31],> 100 µM (inactive)
same,GI50,[32],> 100 µM (inactive)
same,GI50,[33],> 100 µM (inactive)
same,GI50,[34],> 100 µM (inactive)
same,GI50,[35],> 100 µM (inactive)
same,GI50,[36],> 100 µM (inactive)
same,GI50,[37],> 100 µM (inactive)
same,GI50,[38],> 100 µM (inactive)
same,GI50,[39],> 100 µM (inactive)
same,GI50,[40],> 100 µM (inactive)
same,GI50,[41],36 µM (inactive)
same,GI50,[42],> 100 µM (inactive)
same,GI50,[43],> 100 µM (inactive)
same,GI50,[44],> 100 µM (inactive)
same,GI50,[45],> 100 µM (inactive)
same,GI50,[46],> 100 µM (inactive)
same,GI50,[47],> 100 µM (inactive)
same,GI50,[48],25.1 µM (inactive)
same,GI50,[49],23.3 µM (inactive)
same,GI50,[50],> 100 µM (inactive)
same,GI50,[51],> 100 µM (inactive)
same,GI50,[52],29.4 µM (inactive)
same,GI50,[53],37 µM (inactive)
same,GI50,[54],> 100 µM (inactive)
same,GI50,[55],> 100 µM (inactive)
same,GI50,[56],> 100 µM (inactive)
O=C(CCc1ccc(O)c(O)c1)c1ccc(O)c(O)c1O,GI50,[1],35.2 µM (inactive)
same,GI50,[2],17.9 µM (inactive)
same,GI50,[3],34.2 µM (inactive)
same,GI50,[4],14.3 µM (inactive)
same,GI50,[5],> 10 µM (inactive)
same,GI50,[6],17.8 µM (inactive)
same,GI50,[7],10.2 µM (inactive)
same,GI50,[8],17.7 µM (inactive)
same,GI50,[9],19.7 µM (inactive)
same,GI50,[10],20 µM (inactive)
same,GI50,[11],49.8 µM (inactive)
same,GI50,[12],37.3 µM (inactive)
same,GI50,[13],14.7 µM
same,GI50,[57],11.5 µM (inactive)
same,GI50,[15],22.3 µM (inactive)
same,GI50,[16],26.7 µM (inactive)
same,GI50,[17],23.6 µM (inactive)
same,GI50,[58],25.1 µM (inactive)
same,GI50,[18],13.2 µM (inactive)
same,GI50,[19],17.3 µM (inactive)
same,GI50,[20],27.7 µM (inactive)
same,GI50,[21],16.8 µM (inactive)
same,GI50,[22],19.1 µM (inactive)
same,GI50,[23],20.3 µM (inactive)
same,GI50,[24],18.9 µM (inactive)
same,GI50,[25],15.3 µM (inactive)
same,GI50,[26],22.3 µM (inactive)
same,GI50,[27],28.4 µM (inactive)
same,GI50,[28],11.5 µM (inactive)
same,GI50,[29],21.4 µM (inactive)
same,GI50,[30],13 µM (inactive)
same,GI50,[31],11.9 µM (inactive)
same,GI50,[32],26.5 µM (inactive)
same,GI50,[34],19.7 µM (inactive)
same,GI50,[35],21.2 µM (inactive)
same,GI50,[36],22.9 µM (inactive)
same,GI50,[37],34.5 µM (inactive)
same,GI50,[40],16.6 µM (inactive)
same,GI50,[41],18.3 µM (inactive)
same,GI50,[42],15.5 µM (inactive)
same,GI50,[43],60.7 µM (inactive)
same,GI50,[44],58.7 µM (inactive)
same,GI50,[45],17.3 µM (inactive)
same,GI50,[46],52.2 µM (inactive)
same,GI50,[47],15.3 µM (inactive)
same,GI50,[48],34.4 µM (inactive)
same,GI50,[49],19.1 µM (inactive)
same,GI50,[59],24.9 µM (inactive)
same,GI50,[50],27.4 µM (inactive)
same,GI50,[51],23.7 µM (inactive)
same,GI50,[52],19 µM (inactive)
same,GI50,[53],14.8 µM (inactive)
same,GI50,[54],31.5 µM (inactive)
same,GI50,[55],25.9 µM (inactive)
same,GI50,[56],52.4 µM (inactive)
